{
  "source": "patent US5708005A",
  "about": "“Quinolines, their production and use” (priority 1995, dated 1998)",
  "key": {"melatonin receptor": {"molecular_target": "melatonin receptor", "experiment": "Action of inhibiting 2-[^125 I]iodomelatonin binding (forebrain membrane sample)", "parameters": "species or system 7-days-old chicken (white leghorn)", "conditions": "80 pM 2-[^125 I]iodomelatonin, chicken forebrain membranes, 90 minutes at 25° C., pH 7.7; non-specific binding with 10 μM melatonin; log-probit analysis; read-out: IC50 (50% inhibiting concentration), inhibition of 2-[^125 I]iodomelatonin binding", "description": "Action of inhibiting 2-[^125 I]iodomelatonin binding\nThe forebrains of 7-days-old chicken (white leghorn) were homogenized with ice-cold assay buffer (50 mM Tris-HCl, pH 7.7 at 25° C.) and centrifuged at 44,000×g for 10 minutes at 4° C. The pellet was washed once with the same buffer. For the assay, the frozen tissue pellet was thawed and homogenized with the assay buffer to make a protein concentration of 0.3-0.4 mg/ml. In this way, the membrane sample was prepared. The membrane sample was incubated with a test compound and a ligand (80 pM 2-[^125 I]iodomelatonin, about 100,000 dpm) in a total volume of 0.5 ml for 90 minutes at 25° C. The reaction was terminated by adding 3 ml of ice-cold assay buffer immediately followed by vacuum filtration on Whatman GF/B which was further washed twice with 3 ml of ice-cold assay buffer. The radioactivity on the filter was determined by means of γ-counter. […] The 50% inhibiting concentration (IC50) was determined by the log-probit analysis."}, "central nervous system": {"tested_on": "central nervous system", "conditions": "administered peripherally; Bioorganic & Medicinal Chemistry Letters, Vol. 4, p. 1485 (1994); cited from earlier work"}, "metabolic enzymes": {"tested_on": "metabolic enzymes", "conditions": "Rinsho Kensa, Vol. 38, No. 11 (1994); cited from earlier work"}},
  "data": [
    {"smiles": "COc1ccc2nc(Cl)cc(CCNC(C)=O)c2c1", "note": "[Working Example 1, N-[2-(2-chloro-6-methoxyquinolin-4-yl)ethyl]acetamide]", "values": [
      {"measurement": "IC50", "setting": "melatonin receptor", "result": 8.4, "unit": "nM"}
    ]},
    {"smiles": "COc1ccc2nc(Cl)cc(CCNC(=O)C(F)(F)F)c2c1", "note": "[compound 3]", "values": [
      {"measurement": "IC50", "setting": "melatonin receptor", "result": 8.9, "unit": "nM"}
    ]},
    {"smiles": "COc1ccc2[nH]cc(CCNC(C)=O)c2c1", "note": "[melatonin, N-acetyl-5-methoxytryptamine]", "values": [
      {"measurement": "activity on central nervous system", "setting": "central nervous system", "result": "inactive"},
      {"measurement": "metabolism by metabolic enzymes in a living body", "setting": "metabolic enzymes", "result": "readily metabolized"}
    ]}
  ]
}
